Test results from US20130096160A1, “ARYLTHIAZOLYL PIPERIDINES AND RELATED COMPOUNDS AS MODULATORS OF SURVIVAL MOTOR NEURON (SMN) PROTEIN PRODUCTION” (Secretary, Department of Health and Human Services, priority 2010, published 2013).

Key:
CaCo-2 cells = experiment: in vitro; assay type: in vitro ADME
Procedure: CaCo-2 cells grown in tissue culture flasks are trypsinized, suspended in medium, and the suspensions are applied to wells of a collagen-coated BioCoat Cell Environment in 24-well format (BD Biosciences) at 24,500 cells per well. The cells are allowed to grow and differentiate for three weeks, feeding at 2-day intervals.
For Apical to Basolateral (A->B) permeability, the test agent is added at 50 μM to the apical (A) side and amount of permeation is determined on the basolateral (B) side; for Basolateral to Apical (B>A) permeability, the test agent is added at 50 μM to the B side and the amount of permeation is determine on the A side. The A-side buffer contains 100 μM Lucifer yellow dye, in Transport Buffer (1.98 g/L glucose in 10 mM HEPES, 1× Hank's Balanced Salt Solution) pH 6.5, and the B-side buffer is Transport Buffer, pH 7.4. CaCo-2 cells are incubated with these buffers for 2 h., and the receiver side buffer is removed for analysis by liquid chromatography-mass spectrometry (LC/MS/MS).
Additionally, several control compounds are tested in the identical assay.
To verify that CaCo-2 cell monolayers are properly formed, aliquots of the cell buffers are analyzed by fluorescence to determine the transport of the impermeable dye Lucifer Yellow.
Data are expressed as permeability (Papp): […]
where dQ/dt is the rate of permeation, C0 is the initial concentration of test agent, and A is the area of the monolayer.
In bidirectional permeability studies, the asymmetry index (AI) or efflux ratio is also calculated:
An AI>1 indicated a potential substrate for PGP or other active transporters.
Samples are analyzed by LC/MS/MS using either an Agilent 6410 mass spectrometer coupled with an Agilent 1200 high performance liquid chromatography (HPLC) and a CTC PAL chilled autosampler, all controlled by MassHunter software (Agilent), or an ABI2000 mass spectrometer coupled with an Agilent 1100 HPLC and a CTC PAL chilled autosampler, all controlled by Analyst software (ABI). After separation on a C18 reverse phase HPLC column (Agilent, Waters, or equivalent) using an acetonitrile-water gradient system, peaks are analyzed by mass spectrometry (MS) using electrospray ionization (ESI) in multiple reaction monitoring (MRM) mode.
The signal is optimized for each compound by ESI positive or negative ionization mode. A MS2 selected ion monitoring (SIM) scan is used to optimize the precursor ion and a product ion analysis is used to identify the best fragment for analysis and to optimize the collision energy.

SMN1-luciferase reporter = SMN1-luciferase reporter control cell line; assay type: cell-based, human; settings: SMN1-luc reporter, FIG. 1
Description: A cell-based quantitative high throughput screening (qHTS) assay is used to identify compounds able to increase SMN production. The assay uses a SMN2-luciferase reporter to determine if exon 7 of the SMN gene is expressed, which correlates with increased full-length SMN production from the SMN2 gene. As controls, a homologue SMN1-luciferase reporter cell line looks for variations in expression of the SMN1 gene and a cell line with just the luciferase reporter looks at the capacity of the compounds to inhibit luciferase. In addition, increments in SMN production by lead compounds were confirmed by Western-Blot analysis using SMA patient fibroblasts.
The SMN reporters used herein are modified from those previously described (M. L. Zhang, C. L. Lorson, E. J. Androphy and J. Zhou, An in vivo reporter system for measuring increased inclusion of exon 7 in SMN2 mRNA: potential therapy of SMA, Gene Ther 8 (2001), pp. 1532-1538.)
The sequence of the SMN1 reporter vector used herein is given in SEQ ID NO.:1, while that of the SMN2 reporter vector is given in SEQ ID NO.:2. […]

Caco-2 permeability (in words) (CaCo-2 cells): highly permeable | Pgp substrate (in words) (CaCo-2 cells): no indication of being a Pgp substrate | mean A->B Papp (CaCo-2 cells): 32.6 10^−6 cm s^−1 | mean B->A Papp (CaCo-2 cells): 12.0 10^−6 cm s^−1
Structure (SMILES): NC(=O)C1CCN(c2nc(-c3ccc(Br)cc3)cs2)CC1 [MLS000698854]
expression of SMN1 (in words) (SMN1-luciferase reporter): does not affect the expression of SMN1
